Values belong to the molecule of their own block, whether it stands above or below them. Active and inactive are the calls of the source.
Experiments:
[1] = molecular target: Peroxisome proliferator-activated receptor gamma/Nuclear receptor coactivator 2 (Homo sapiens, UniProt P37231); experiment: TR-FRET dose response biochemical High Throughput Screening assay for agonists of the steroid receptor coactivator 2 (SRC-2) recruitment by the peroxisome proliferator-activated receptor gamma (PPAR gamma): non-selective agonists. [Related pubchem assays: 1297, 1032 ]; type: functional
[2] = molecular target: Peroxisome proliferator-activated receptor gamma/Nuclear receptor coactivator 1 (Homo sapiens, UniProt P37231); experiment: TR-FRET dose response biochemical High Throughput Screening assay for agonists of the steroid receptor coactivator 1 (SRC-1) recruitment by the peroxisome proliferator-activated receptor gamma (PPAR gamma): non-selective agonists. [Related pubchem assays (depositor defined):AID1300, AID1808, AID504735, AID631]; type: protein assay
[3] = molecular target: Peroxisome proliferator-activated receptor gamma/Nuclear receptor coactivator 3 (Homo sapiens, UniProt P37231); experiment: TR-FRET dose response biochemical High Throughput Screening assay for agonists of the steroid receptor coactivator 3 (SRC-3) recruitment by the peroxisome proliferator-activated receptor gamma (PPAR gamma): non-selective agonists. [Related pubchem assays: 1301 (Confirmation screen.), 1048 (Primary screen.)]; type: functional
[4] = molecular target: T1, Sentrin-specific protease 7 (Homo sapiens, UniProt Q9BQF6); type: functional;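 note: Luminescence-based dose-response confirmation of ultra-high-throughput screening hits, measuring inhibition of SENP7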
T1 sequence (Q9BQF6 whole entry): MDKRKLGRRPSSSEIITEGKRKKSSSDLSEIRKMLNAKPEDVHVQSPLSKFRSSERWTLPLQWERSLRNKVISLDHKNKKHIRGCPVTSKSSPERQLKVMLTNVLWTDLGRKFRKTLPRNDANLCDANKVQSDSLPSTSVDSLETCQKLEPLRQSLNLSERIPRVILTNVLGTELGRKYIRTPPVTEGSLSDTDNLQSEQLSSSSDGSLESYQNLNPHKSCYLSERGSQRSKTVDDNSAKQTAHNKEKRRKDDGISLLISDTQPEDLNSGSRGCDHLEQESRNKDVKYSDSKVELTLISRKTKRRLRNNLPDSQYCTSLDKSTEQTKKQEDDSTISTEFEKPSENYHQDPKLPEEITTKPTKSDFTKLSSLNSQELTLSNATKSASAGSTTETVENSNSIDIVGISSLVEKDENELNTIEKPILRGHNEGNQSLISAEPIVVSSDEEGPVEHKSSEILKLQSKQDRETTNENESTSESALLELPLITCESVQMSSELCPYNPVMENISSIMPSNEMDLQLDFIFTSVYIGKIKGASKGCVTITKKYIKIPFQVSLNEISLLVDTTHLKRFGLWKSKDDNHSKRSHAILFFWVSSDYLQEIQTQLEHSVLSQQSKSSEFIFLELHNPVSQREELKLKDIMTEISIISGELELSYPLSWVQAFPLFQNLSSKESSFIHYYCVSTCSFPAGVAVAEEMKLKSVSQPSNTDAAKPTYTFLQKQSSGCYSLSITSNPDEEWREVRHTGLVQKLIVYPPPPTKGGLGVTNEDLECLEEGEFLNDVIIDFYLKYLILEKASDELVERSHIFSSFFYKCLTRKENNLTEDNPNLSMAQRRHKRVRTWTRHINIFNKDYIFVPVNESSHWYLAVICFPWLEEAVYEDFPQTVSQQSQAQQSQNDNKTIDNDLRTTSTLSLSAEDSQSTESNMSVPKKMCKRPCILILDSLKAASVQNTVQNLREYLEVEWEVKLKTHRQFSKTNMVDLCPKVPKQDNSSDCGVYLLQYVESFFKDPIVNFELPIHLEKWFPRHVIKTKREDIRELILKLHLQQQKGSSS

[5] = molecular target: T2, Caspase-3 (Homo sapiens, UniProt P42574); type: functional;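 note: Dose-response selectivity test against caspase-3 for candidate inhibitors of sentrin-specific proteases (SENPs)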
T2 sequence (P42574 whole entry): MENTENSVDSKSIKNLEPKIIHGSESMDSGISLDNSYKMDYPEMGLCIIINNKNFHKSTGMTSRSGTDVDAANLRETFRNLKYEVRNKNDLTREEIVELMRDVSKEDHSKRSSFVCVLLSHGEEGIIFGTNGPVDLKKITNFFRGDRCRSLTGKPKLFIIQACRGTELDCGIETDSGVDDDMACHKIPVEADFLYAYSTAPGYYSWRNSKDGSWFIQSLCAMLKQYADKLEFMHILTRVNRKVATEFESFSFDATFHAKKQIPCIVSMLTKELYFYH

[6] = molecular target: T3, Sentrin-specific protease 6 (Homo sapiens, UniProt Q9GZR1); type: functional;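 note: Luminescence-based dose-response confirmatory assay of SENP6 inhibition, following up an ultra-high-throughput screen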
T3 sequence (Q9GZR1 whole entry): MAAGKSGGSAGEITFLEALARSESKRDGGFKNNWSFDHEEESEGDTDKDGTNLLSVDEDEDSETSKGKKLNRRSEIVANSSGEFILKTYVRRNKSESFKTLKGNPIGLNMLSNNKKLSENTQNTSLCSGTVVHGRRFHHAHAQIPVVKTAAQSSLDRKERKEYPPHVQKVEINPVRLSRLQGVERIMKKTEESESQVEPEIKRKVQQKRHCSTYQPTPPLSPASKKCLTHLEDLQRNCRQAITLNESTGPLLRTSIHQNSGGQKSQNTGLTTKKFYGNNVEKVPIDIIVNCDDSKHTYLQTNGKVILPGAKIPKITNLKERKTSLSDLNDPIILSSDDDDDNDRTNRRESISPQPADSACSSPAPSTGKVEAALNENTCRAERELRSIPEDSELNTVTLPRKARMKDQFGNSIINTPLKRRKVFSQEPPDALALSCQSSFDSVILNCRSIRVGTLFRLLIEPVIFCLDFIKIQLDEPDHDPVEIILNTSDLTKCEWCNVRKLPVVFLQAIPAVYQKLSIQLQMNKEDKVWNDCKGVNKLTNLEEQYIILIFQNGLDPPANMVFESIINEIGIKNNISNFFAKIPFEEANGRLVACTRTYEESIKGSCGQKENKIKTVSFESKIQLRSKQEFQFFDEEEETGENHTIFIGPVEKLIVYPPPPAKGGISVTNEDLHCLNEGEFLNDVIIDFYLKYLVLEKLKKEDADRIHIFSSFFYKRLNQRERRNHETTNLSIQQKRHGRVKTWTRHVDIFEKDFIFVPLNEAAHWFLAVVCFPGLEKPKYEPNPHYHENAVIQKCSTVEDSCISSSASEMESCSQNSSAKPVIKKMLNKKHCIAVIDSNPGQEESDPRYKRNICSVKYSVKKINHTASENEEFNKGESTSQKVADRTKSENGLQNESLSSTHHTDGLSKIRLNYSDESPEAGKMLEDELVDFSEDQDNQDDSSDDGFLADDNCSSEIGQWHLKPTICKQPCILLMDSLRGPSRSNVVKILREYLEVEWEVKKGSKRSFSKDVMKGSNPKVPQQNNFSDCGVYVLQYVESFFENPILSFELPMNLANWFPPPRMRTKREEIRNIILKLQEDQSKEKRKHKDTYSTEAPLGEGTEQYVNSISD

[7] = molecular target: T4, Sentrin-specific protease 8 (Homo sapiens, UniProt Q96LD8); type: functional;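 note: luminescence read-out of SENP8 inhibition, dose-response confirmation following an ultra-high-throughput screen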
T4 sequence (Q96LD8 whole entry): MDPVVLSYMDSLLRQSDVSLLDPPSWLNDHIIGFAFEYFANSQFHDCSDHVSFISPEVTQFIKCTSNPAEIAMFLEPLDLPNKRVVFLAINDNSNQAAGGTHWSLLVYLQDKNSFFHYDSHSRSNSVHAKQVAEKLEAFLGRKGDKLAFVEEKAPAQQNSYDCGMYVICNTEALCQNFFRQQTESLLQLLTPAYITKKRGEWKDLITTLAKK

[8] = molecular target: Cytochrome P450 3A4 (Homo sapiens, UniProt P08684);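 note: CYP3A4 tested as one member of a cytochrome P450 panel screen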
[9] = molecular target: Cytochrome P450 2C19 (Homo sapiens, UniProt P33261); experiment: Cytochrome panel assay with activity outcomes. Panel member name: p450-cyp2c19 Compounds with AC50 equal or less than 10 uM are considered active; type: functional
[10] = HEK-293T viability loss after treatment – luminescence, T-cell screen hits, cytotoxicity control for TCR NF-kB inhibitor project, dose response (AID 489026); type: functional, cell-based;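 note: cells exposed to compound about 14 hours before the viability readout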
[11] = molecular target: T5, COUP transcription factor 2 (Homo sapiens, UniProt P24468); experiment: Luminescence-based cell-based high throughput dose response assay to identify inhibitors of COUP-TFII (NR2F2).; type: functional;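 note: HEK293 cells transiently cotransfected with COUP-TFII expression vector and reporter; luciferase reporter luminescence driven by COUP-TFII from the pX2-168 reporter plasmid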
T5 sequence (P24468 whole entry): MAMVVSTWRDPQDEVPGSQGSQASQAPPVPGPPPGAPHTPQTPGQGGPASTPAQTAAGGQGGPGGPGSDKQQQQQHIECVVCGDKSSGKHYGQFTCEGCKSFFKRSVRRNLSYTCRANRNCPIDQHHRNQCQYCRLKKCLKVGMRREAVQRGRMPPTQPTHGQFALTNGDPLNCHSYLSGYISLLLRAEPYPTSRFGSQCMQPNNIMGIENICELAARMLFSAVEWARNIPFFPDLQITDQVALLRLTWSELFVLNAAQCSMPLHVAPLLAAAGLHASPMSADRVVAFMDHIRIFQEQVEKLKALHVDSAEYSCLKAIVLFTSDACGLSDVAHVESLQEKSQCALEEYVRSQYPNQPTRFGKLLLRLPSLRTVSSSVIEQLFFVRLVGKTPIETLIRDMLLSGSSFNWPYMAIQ

[12] = viability of HCT116 lacking mutant beta-catenin – cell-based, human colon tumor, dose response (AID 1045); type: functional;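 note: HCT116 colon tumor cells with beta catenin knocked out; cells exposed to compound for 60 hours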
[13] = viability of PTEN-deleted HCT116 cells – cell-based, HCT116 PTEN knockout, dose response (AID 1047); type: functional;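 note: HCT116 colon tumor cells with PTEN knocked out; cells exposed to compound for 60 hours before readout; potency for loss of cell viability measured by luminescence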
[14] = NIH3T3 cell viability loss – ATP luminescence, mouse fibroblasts, counter-screen, dose response (AID 2010); type: functional, cell-based;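 note: cells exposed to compound for about 90 hours before reading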
[15] = Trypanosoma cruzi growth suppression in host cells – NIH3T3 host cells, beta-gal luminescence, confirmation (AID 2044); type: functional, cell-based;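 note: intracellular parasites grown in NIH/3T3 mouse fibroblasts as host cells; luminescent beta-galactosidase reporter signal from transgenic T. cruzi replicating inside host cells; inhibitors lower the luminescence signal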
[16] = system: HEK293; experiment: inhibition of NOD1-driven NF-kB reporter – cell-based, luminescence, uHTS, primary screen (AID 1578); type: functional; conditions: Homo sapiens
[17] = system: HEK293; experiment: cells; type: functional, cell-based; conditions: Homo sapiens
[18] = system: HEK293; experiment: cells; type: functional, cell-based; conditions: Homo sapiens; remark: listed apart in the source
[19] = loss of viability in HepG2 cells – cell-based, CellTiter-Glo, cherry-picked, cytotoxicity control for Shn3 inhibitor project, dose response (AID 624134); type: functional
[20] = reduction of Shn3 3'UTR-driven luciferase in osteoblasts – cell-based, Clone20 osteoblasts, firefly luciferase, cherry-picked, dose response (AID 624132); type: functional;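 note: firefly luciferase luminescence from reporter carrying the Shn3 3'UTR in osteoblasts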
[21] = non-specific 3'UTR reporter inhibition in Clone20-Shn3RL – cell-based, Renilla luciferase, cherry-picked, counter-screen for Shn3 inhibitor project, dose response (AID 624133); type: functional
[22] = system: HEK293; experiment: NOD2 signaling inhibitors in MDP-stimulated cells, cell-based, uHTS, luminescence (AID 2001); type: functional; conditions: Homo sapiens
[23] = molecular target: Cytochrome P450 2D6 (Homo sapiens, UniProt P10635);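 note: CYP2D6 member of a cytochrome P450 panel assay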
[24] = molecular target: Cytochrome P450 2C9 (Homo sapiens, UniProt P11712)

Peroxisome proliferator-activated receptor gamma/Nuclear receptor coactivator 3, sequence (P37231 whole entry): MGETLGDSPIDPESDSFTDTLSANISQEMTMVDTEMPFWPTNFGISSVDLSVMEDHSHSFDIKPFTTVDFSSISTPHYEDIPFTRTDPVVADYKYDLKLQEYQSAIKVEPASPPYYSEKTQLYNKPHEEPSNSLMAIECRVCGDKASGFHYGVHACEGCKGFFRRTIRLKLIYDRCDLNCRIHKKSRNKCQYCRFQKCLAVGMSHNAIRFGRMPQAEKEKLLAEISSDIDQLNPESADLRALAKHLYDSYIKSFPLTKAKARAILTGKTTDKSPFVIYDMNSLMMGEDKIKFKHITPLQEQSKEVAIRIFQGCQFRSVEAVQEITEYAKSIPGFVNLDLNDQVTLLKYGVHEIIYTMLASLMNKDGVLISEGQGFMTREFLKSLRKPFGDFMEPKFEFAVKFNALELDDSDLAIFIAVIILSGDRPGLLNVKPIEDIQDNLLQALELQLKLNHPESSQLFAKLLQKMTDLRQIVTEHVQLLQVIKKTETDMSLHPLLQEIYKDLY
Peroxisome proliferator-activated receptor gamma/Nuclear receptor coactivator 3, sequence (Q9Y6Q9 whole entry, further chain): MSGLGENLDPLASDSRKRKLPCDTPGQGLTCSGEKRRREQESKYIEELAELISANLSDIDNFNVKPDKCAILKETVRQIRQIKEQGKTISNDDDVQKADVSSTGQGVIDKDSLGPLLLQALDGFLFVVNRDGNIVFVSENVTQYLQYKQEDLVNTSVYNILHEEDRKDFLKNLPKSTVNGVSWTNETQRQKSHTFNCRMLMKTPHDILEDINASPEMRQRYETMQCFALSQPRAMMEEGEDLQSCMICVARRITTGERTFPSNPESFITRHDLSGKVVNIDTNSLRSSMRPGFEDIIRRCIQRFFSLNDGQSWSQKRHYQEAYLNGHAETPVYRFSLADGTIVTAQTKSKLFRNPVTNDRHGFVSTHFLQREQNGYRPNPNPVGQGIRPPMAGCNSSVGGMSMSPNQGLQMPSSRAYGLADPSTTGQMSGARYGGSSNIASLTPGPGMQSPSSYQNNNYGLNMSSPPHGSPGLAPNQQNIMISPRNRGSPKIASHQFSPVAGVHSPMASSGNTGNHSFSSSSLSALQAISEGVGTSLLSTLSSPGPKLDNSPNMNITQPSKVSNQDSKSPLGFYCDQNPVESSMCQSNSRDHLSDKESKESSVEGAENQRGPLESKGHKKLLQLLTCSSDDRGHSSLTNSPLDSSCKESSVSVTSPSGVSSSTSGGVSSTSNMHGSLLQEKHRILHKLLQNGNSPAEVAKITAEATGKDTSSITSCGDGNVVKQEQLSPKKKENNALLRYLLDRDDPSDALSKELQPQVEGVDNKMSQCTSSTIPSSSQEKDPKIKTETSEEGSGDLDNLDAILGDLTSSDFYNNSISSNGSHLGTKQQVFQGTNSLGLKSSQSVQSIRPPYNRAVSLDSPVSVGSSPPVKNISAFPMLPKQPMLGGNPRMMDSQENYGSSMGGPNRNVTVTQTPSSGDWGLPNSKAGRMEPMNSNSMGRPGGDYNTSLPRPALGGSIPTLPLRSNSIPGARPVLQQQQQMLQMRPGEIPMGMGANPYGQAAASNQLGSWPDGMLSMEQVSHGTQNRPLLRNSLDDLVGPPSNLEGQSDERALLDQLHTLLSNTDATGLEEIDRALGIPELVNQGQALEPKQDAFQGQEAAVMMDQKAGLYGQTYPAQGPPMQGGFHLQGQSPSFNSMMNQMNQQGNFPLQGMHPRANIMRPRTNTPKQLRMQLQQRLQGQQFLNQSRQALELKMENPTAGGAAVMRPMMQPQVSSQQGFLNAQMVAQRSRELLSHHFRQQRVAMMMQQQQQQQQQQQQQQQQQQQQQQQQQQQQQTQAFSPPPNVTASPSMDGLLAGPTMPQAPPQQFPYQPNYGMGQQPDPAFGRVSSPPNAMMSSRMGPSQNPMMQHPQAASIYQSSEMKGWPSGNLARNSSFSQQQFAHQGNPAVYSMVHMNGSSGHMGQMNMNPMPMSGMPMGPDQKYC
Peroxisome proliferator-activated receptor gamma/Nuclear receptor coactivator 1, sequence (P37231 whole entry): as the sequence (P37231 whole entry) above
Peroxisome proliferator-activated receptor gamma/Nuclear receptor coactivator 1, sequence (Q15788 whole entry, further chain): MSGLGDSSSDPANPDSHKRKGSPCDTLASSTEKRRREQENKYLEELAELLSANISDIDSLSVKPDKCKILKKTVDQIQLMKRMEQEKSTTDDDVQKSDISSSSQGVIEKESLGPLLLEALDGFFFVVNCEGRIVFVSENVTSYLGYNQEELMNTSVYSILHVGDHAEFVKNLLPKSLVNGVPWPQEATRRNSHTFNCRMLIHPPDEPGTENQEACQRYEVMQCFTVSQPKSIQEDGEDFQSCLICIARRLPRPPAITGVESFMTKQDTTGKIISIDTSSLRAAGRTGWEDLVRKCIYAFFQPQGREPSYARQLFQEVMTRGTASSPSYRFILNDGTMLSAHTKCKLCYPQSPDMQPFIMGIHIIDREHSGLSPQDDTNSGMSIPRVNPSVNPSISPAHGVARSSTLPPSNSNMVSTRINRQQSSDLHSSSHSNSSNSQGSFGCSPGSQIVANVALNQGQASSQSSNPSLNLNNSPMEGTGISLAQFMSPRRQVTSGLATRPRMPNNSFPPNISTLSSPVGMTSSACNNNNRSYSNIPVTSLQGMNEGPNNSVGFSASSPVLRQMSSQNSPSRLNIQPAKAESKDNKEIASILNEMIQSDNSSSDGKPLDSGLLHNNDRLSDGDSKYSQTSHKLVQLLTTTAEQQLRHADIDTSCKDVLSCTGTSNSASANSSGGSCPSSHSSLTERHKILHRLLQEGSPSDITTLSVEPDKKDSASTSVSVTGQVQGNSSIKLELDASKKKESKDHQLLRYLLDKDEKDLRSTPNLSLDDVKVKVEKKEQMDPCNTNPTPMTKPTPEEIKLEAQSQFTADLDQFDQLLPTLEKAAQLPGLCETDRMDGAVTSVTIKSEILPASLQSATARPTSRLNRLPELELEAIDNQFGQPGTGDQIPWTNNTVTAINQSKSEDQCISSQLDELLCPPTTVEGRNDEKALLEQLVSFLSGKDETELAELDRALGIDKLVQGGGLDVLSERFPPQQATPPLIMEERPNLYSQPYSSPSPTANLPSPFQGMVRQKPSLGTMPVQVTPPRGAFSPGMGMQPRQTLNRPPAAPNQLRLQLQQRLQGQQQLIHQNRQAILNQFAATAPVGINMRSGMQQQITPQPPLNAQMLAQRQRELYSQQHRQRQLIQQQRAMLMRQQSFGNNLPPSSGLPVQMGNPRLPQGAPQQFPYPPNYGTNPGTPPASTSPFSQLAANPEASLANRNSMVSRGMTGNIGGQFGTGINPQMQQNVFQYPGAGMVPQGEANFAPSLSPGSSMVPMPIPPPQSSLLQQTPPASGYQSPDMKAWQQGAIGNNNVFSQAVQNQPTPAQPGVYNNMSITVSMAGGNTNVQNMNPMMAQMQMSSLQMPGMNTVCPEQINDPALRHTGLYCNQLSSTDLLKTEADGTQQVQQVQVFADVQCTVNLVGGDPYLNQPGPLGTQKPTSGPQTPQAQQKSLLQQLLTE
Cytochrome P450 3A4, sequence (P08684 whole entry): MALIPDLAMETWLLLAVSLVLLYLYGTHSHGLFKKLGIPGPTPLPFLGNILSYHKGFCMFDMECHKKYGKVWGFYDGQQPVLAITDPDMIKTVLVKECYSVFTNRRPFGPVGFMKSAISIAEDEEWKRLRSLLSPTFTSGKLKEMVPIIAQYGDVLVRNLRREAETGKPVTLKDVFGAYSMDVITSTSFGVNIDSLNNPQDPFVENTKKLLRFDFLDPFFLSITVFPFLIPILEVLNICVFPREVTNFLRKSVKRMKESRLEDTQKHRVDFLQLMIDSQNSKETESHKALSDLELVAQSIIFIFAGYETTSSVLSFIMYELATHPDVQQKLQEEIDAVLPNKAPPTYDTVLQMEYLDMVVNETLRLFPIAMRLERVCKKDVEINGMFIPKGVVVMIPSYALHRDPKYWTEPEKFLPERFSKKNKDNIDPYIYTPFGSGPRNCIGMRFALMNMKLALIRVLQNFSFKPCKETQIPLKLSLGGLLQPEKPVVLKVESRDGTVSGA
Cytochrome P450 2C19, sequence (P33261 whole entry): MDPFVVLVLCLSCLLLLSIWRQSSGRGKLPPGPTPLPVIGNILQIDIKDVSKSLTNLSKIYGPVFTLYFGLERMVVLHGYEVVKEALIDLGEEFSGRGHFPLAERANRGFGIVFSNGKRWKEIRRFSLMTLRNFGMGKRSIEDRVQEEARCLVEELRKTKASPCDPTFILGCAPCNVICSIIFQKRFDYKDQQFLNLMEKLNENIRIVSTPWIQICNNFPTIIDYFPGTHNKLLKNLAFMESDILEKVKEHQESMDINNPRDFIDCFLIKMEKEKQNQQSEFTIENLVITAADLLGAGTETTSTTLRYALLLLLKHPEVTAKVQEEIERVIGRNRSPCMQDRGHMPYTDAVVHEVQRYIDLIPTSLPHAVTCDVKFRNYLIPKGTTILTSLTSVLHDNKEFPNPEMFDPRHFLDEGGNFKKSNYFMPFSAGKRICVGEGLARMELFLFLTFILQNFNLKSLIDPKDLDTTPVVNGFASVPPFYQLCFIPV

SMILES: COC(=O)Cc1c(C)c2c(O)cc(C)cc2oc1=O
- EC50 [1]: > 79.4 µM (not active)
- EC50 [2]: > 79.4 µM (inactive)
- EC50 [3]: > 79.4 µM (not active)

SMILES: Cn1nc(CC(=O)Nc2ccc(N3CCN(C(=O)OC(C)(C)C)CC3)cc2)c2ccccc2c1=O
- IC50 [10]: > 80 µM (inactive)
- IC50 [11]: 4.32 µM (active)
- EC50 [12]: 5.89 µM (active)
- EC50 [13]: 8.04 µM (active)

SMILES: Cc1cc2cc(CNC(=O)c3cc4ccccc4o3)ccc2n1C
- EC50 [14]: > 60 µM (not active)
- EC50 [1]: 11.1 µM (not active)
- EC50 [2]: 10.6 µM (inactive)
- EC50 [15]: 0.547 µM (active)
- EC50 [3]: 19.2 µM (not active)

SMILES: Cn1c(=O)cc(SCC(=O)NCC2CCCO2)c2ccc(Cl)cc21 (stereo not drawn)
- EC50 [1]: > 26.5 µM (not active)
- EC50 [2]: > 79.4 µM (inactive)
- EC50 [3]: > 79.4 µM (not active)

SMILES: CCN(CC)C(=O)c1oc2ccc(S(=O)(=O)N3CC(C)CC(C)C3)cc2c1C (stereo not drawn)
- IC50 [11]: 8.24 µM (active)
- EC50 [16]: 2.78 µM (active)
- IC50 [17]: > 20 µM (inactive)
- IC50 [18]: 4.79 µM (active)
- AC50 [19]: 3.55 µM (active)
- AC50 [20]: 1.02 µM (active)
- AC50 [21]: 6.58 µM (active)
- IC50 [22]: 5.18 µM (active)

SMILES: CCCN(CCC)CCc1cccc2c1CC(=O)N2 [ROPINIROLE]
- AC50 [8]: inconclusive
- AC50 [9]: inconclusive
- AC50 [24]: inconclusive

Second part, led by results:

- EC50 [1]: 14.2 µM (not active)
- EC50 [2]: 24.3 µM (inactive)
- EC50 [3]: > 79.4 µM (not active)
SMILES: CCOC(=O)c1sc(NC(=O)c2ccco2)nc1-c1ccccc1

- IC50 [4]: < 1.55 µM (active)
- IC50 [5]: 2.52 µM (active)
- IC50 [6]: > 100 µM (inactive)
SMILES: COc1cccc(-c2nc3ccc([N+](=O)[O-])cc3o2)c1
- IC50 [7]: > 100 µM (inactive)

- AC50 [8]: inconclusive
- AC50 [9]: inconclusive
SMILES: CCc1nc2cc(CC(=O)O)ccc2o1

- IC50 [4]: 8.46 µM (active)
- IC50 [5]: 31.1 µM (active)
- IC50 [6]: 28.5 µM (active)
SMILES: COc1ccc(-c2csc(NC(=O)c3ccco3)n2)cc1
- IC50 [7]: 41.3 µM (active)

- AC50 [8]: inconclusive
SMILES: COc1ccc(C(=O)NC(=S)NCc2ccccc2)cc1

- IC50 [4]: 6.72 µM (active)
- IC50 [5]: 29.7 µM (active)
- IC50 [6]: 33.7 µM (active)
SMILES: C[N+](=N[N-]c1cccc([N+](=O)[O-])c1)c1ccccc1
- IC50 [7]: 36 µM (active)

- IC50 [4]: 5.5 µM (active)
- IC50 [5]: 26.5 µM (active)
- IC50 [6]: 9.3 µM (active)
SMILES: O=C(Nc1ccc(Cl)cc1)C1=Cc2ccccc2OC1
- IC50 [7]: 10.1 µM (active)

- EC50 [1]: 28.6 µM (not active)
- EC50 [2]: > 79.4 µM (inactive)
- EC50 [3]: > 79.4 µM (not active)
SMILES: Clc1cccc(-c2ccc(/C=N/c3ccc(N4CCOCC4)cc3)o2)c1

- AC50 [8]: inconclusive
- AC50 [23]: 2 µM (inconclusive)
SMILES: CO/N=C(/CNC(=O)c1ccc(Cl)cc1Cl)c1ccc(Cl)cc1
